Patent publication US12115193B2, “Methods of using RARγ agonists for cancer treatment” (Io Therapeutics, Inc., priority 2021, dated 2024)

Assays:
RARγ = biological target: T1, RARγ (Homo sapiens, UniProt P13631); experiment: RARγ transactivation assay (luciferase reporter); format: cell-based; conditions: at all tested concentrations (0.5 to 625 nM); receptor not given
T1 construct: expression plasmids encoding the full-length receptors RARα and RARγ; expressed in transfected cells
T1 sequence (P13631 1-454): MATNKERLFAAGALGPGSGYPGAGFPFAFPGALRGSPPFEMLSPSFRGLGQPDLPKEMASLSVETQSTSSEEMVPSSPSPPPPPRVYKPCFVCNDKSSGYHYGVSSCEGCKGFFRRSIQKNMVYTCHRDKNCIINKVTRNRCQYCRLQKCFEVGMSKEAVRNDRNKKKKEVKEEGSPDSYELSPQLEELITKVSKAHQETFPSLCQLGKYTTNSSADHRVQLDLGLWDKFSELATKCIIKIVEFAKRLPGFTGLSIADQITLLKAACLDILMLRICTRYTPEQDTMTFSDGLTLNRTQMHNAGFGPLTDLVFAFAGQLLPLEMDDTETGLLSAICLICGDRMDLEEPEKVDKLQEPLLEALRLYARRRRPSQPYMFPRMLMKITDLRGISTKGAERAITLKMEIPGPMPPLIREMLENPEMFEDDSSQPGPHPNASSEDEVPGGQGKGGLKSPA
Method: Transactivation assays were conducted to test the specificity of binding activity of GA1E and GA2E for RARα and RARγ. Retinoic acid receptor transactivation activity and binding efficiencies were determined essentially as described in U.S. Pat. Nos. 5,298,429 and 5,071,773, incorporated by reference herein for all they teach regarding transactivation assays. Transactivation assays employed expression plasmids encoding the full-length receptors RARα and RARγ. Reporter plasmids containing the herpes virus thymidine kinase promoter and the appropriate retinoic acid receptor response element (RAREs) were positioned upstream of an open coding region encoding firefly luciferase.
The ability of GA1E and GA2E to activate RARα and RARγ in a transactivation assay was tested over a concentration range of 0.5 to 625 nM (GA2E) or 0.05 to 3320 nM (GA1E). GA1E induced less than 10% transactivation for RARα across the whole concentration range, but over 50% transactivation for RARγ at concentrations ≥25 nM and over 70% at concentrations 125 nM (FIG. 3A). GA2E induced more than 85% transactivation at all tested concentrations and less than 10% transactivation of RARα at concentrations of ≤25 nM (FIG. 3B).

TIL in JIMT-1 tumors = experiment: Flow cytometry of JIMT-1 tumors from NSG-B2M mice, Day 26; format: in vivo, human
Text: The mice were sacrificed on Day 26 of the study and the tumors collected and analyzed by flow cytometry. Statistical analysis was by ordinary one-way ANOVA with Tukey's test for significance comparison between groups. Gates were set to identify single cells by forward light scatter, live cells as single cells based on side scatter and staining with the vital stain Fixable Viability Dye eFluor™ 780, white blood cells from live cells based on side scatter and staining with anti-CD45, lymphocytes from white blood cells based on side and forward light scatter, and total T lymphocytes (tot T) from lymphocytes based on side scatter and staining with anti-CD3. Total T lymphocytes were divided into CD4^+ (TH) and CD8^+ (TC) lymphocytes based on staining with and anti-CD4 and CD8 antibodies and subsets assessed. The following observations were made on a per-mg of tumor tissue basis.

LLC cells = experiment: LLC syngeneic model in C57BL/6 mice (Example 10); format: in vivo
Method: The LLC model is based on an epidermoid carcinoma of the lung that spontaneously arose in a C57BL/6 mouse some 70 years ago, Syngeneic models have been useful in predicting clinical benefit. C57BL/6 mice, 6-8 weeks old, were injected subcutaneously in the left flank with 0.1 mL containing 3×10^5 LLC cells. When tumors reached an average tumor volume of 50-150 mm^3, the mice were matched by tumor size and sorted into control and treatment groups, and dosing initiated (Day 0). Three groups of 10 mice each were established: vehicle control, 10 mg/kg GA2E, and 25 mg/kg GA2E. The mice received one oral dose per day for 13 days. Tumor volumes and weight were measured on days 0, 2, 4, 6, 9, 11, and 13. This study was ended on Day 13, as the average tumor volume was >1500 mm^3, and the tumors analyzed by flow cytometry. Two animals in the 10 mg/kg group and one animal in the 25 mg/kg group were terminated early due to ulceration of the tumor.

EMT6 cells = experiment: EMT6 triple negative breast cancer model, various dosages (Example 5); format: in vivo, mouse
Text: The EMT6 triple negative breast cancer model, essentially as described above, was used to assess the effects of increased dosages of GA2E. The mice were orally administered 10 (n=10), 25 (n=10), or 50 (n=11) mg/kg of GA2E, or vehicle control (n=10) daily for 17 days. […] Two mice in the vehicle control group were terminated at Day 12 with tumors >1500 mm^3.

[1] = system: Lewis lung carcinoma (LLC) cells; experiment: Lewis lung carcinoma in vitro culture viability, Cell Titer Glo Assay; format: cell-based, mouse
Method: Lewis lung carcinoma (LLC) cells were cultured in vitro the presence of a multiple concentrations of the RARγ agonists GA1E, GA2E, and GA3Ep and viability assessed by the Cell Titer Glo Assay®.

[2] = per mg tumor, vs controls, P<0.0001
[3] = per mg tumor, vs controls, P<0.001
[4] = per mg tumor, vs controls, P<0.05
[5] = per mg tumor, vs controls, P<0.05, listed as GA2
[6] = per mg tumor, vs controls, P>0.05
[7] = 10 mg/kg oral daily for 13 days
[8] = 25 mg/kg oral daily for 13 days

CC1(C)CCC(C)(C)c2cc(C(/C=C/c3ccc(C(=O)O)cc3F)=N/O)ccc21 [GA2E, 3-fluoro-4-((1E,3E)-3-(hydroxyimino)-3-(5,5,8,8-tetramethyl-5,6,7,8-tetrahydronaphthalen-2-yl)prop-1-en-1-yl)benzoic acid]
transactivation (RARγ): more than 85% | proportion of tumor cells expressing PD-L1, CD18β, CD58 (LFA-3), and Her2 (TIL in JIMT-1 tumors; JIMT-1 tumor cells, flow cytometry): did not significantly alter | concentration of T central memory CD8+ cells (CCR7+ CD45AR−) in tumor (TIL in JIMT-1 tumors; per mg tumor, vs controls): no significant change | concentration of T effector memory CD8+ cells (CCR7− CD45AR−) in tumor (TIL in JIMT-1 tumors; per mg tumor, vs controls): no significant change | concentration of naïve CD8+ cells (CCR7+ CD45AR+) in tumor (TIL in JIMT-1 tumors; per mg tumor, vs controls): no significant change | concentration of CD8+ TIL expressing PD-1 (TIL in JIMT-1 tumors; [2]): increased | concentration of terminally differentiated CD8+ T effector cells (CCR7− CD45AR+) (TIL in JIMT-1 tumors; [2]): substantial increase | concentration of CD8+ TIL expressing CD18β (TIL in JIMT-1 tumors; [3]): increased | concentration of total CD8+ lymphocytes in tumor (TIL in JIMT-1 tumors; [3]): increased | concentration of CD8+ TIL expressing CD54 (TIL in JIMT-1 tumors; per mg tumor, vs controls, P<0.01): increased | concentration of CD4+ TIL expressing CD18β (TIL in JIMT-1 tumors; [4]): increased | concentration of CD4+ TIL expressing CD54 (TIL in JIMT-1 tumors; [4]): decreased | concentration of CD4+ TIL expressing PD-1 (TIL in JIMT-1 tumors; [4]): decreased | concentration of T central memory CD4+ cells (CCR7+ CD45AR−) (TIL in JIMT-1 tumors; [4]): decreased | concentration of T effector memory CD4+ cells (CCR7− CD45AR−) (TIL in JIMT-1 tumors; [4]): decreased | concentration of naïve CD4+ cells (CCR7+ CD45AR+) (TIL in JIMT-1 tumors; [4]): decreased | concentration of total CD4+ lymphocytes in tumor (TIL in JIMT-1 tumors; [4]): decreased | concentration of CD4+ TIL expressing CD54 (TIL in JIMT-1 tumors; [5]): increased | concentration of CD4+ TIL expressing PD-1 (TIL in JIMT-1 tumors; [5]): increased | concentration of CD4+ TIL expressing FoxP3 (TIL in JIMT-1 tumors; [6]): increased | concentration of terminally differentiated CD4+ T effector cells (CCR7− CD45AR+) (TIL in JIMT-1 tumors; [6]): decreased | tolerability (LLC cells; [7]): well tolerated | tumor growth (LLC cells; [7]): inhibited tumor growth | weight loss over the course of the study (LLC cells; [7]): minimal weight loss | tolerability (LLC cells; [8]): less well tolerated | tumor growth (LLC cells; [8]): inhibited tumor growth | weight loss (LLC cells; 25 mg/kg oral daily, by about Day 10): exceeding 10% | tolerability (EMT6 cells; 10 mg/kg oral daily for 17 days): acceptably well-tolerated | mice terminated for excessive weight loss (EMT6 cells; 25 mg/kg group (n=10), oral daily): one mouse | inhibiting tumor growth, 25 mg/kg dosage versus 10 mg/kg dosage (EMT6 cells; 25 mg/kg oral daily): somewhat more effective | tolerability (EMT6 cells; 25 mg/kg oral daily for 17 days): acceptably well-tolerated | weight loss (EMT6 cells; 25 mg/kg, only a short excursion): more than 10% | mice terminated for excessive weight loss (EMT6 cells; 50 mg/kg oral daily (n=11)): terminated for excessive weight loss not later than Day 12 | tumor inhibition by the 50 mg/kg dosage versus the other dosages (EMT6 cells; 50 mg/kg, limited time in the study (to Day 12)): not clearly different | effect on viability as concentrations exceeded 10 μM [1]: rapidly became toxic | effect on viability at concentrations below 1 μM [1]: no effect | IC50 ([1]; Mus musculus, Lewis lung carcinoma): 46 µM
